Source: ChEMBL document CHEMBL1150207, “Cytotoxicities of some flavonoid analogues” (1991)
Converted amounts (≈) assume the structure as drawn.

What was measured:
Assay type in all cases: functional
A549 = test: Cytotoxicity against human A549 cells after 6 days by MTT assay; settings: A549, 144 h, read-out: ED50 (the source's name)
MCF7 = test: Cytotoxicity against human MCF7 cells after 6 days by MTT assay; settings: MCF7, 144 h, read-out: ED50 (the source's name)
HT-29 = test: Cytotoxicity against human HT-29 cells after 6 days by MTT assay; settings: HT-29, 144 h, read-out: ED50 (the source's name)
SK-MEL = test: Cytotoxicity against human SK-MEL cells after 6 days by MTT assay; settings: 144 h, read-out: ED50 (the source's name)
Malme-3M = test: Cytotoxicity against human MALME-3M cells after 6 days by MTT assay; settings: 144 h, read-out: ED50 (the source's name)

Compound	EC50 (A549) [µg/mL]	EC50 (MCF7) [µg/mL]	EC50 (HT-29) [µg/mL]	EC50 (SK-MEL) [µg/mL]	EC50 (Malme-3M) [µg/mL]
O=C(O)c1c(-c2ccc(Br)cc2)oc2ccccc2c1=O	> 25	> 25	> 25	> 25	> 25
Nc1ccc(-c2cc(=O)c3ccc(O)cc3o2)cc1	8.87 (≈ 35 µM)	> 25	4.71 (≈ 18.6 µM)	6.59 (≈ 26 µM)	> 25
COC(=O)c1c(-c2cc(OC)c(OC)c(OC)c2)oc2ccccc2c1=O	> 25	> 25	> 25	> 25	> 25
O=C(O)c1c(-c2ccc([N+](=O)[O-])cc2)oc2ccccc2c1=O	> 25	> 25	> 25	> 25	> 25
COC(=O)c1c(-c2ccc([N+](=O)[O-])cc2)oc2ccccc2c1=O	> 25	> 25	> 25	> 25	> 25
COC(=O)c1c(-c2ccc(O)cc2)oc2cc(OC)ccc2c1=O	> 25	> 25	19.2 (≈ 58.9 µM)	19.6 (≈ 59.9 µM)	20.1 (≈ 61.6 µM)
COC(=O)c1c(-c2ccc([N+](=O)[O-])cc2)oc2ccc(OC)cc2c1=O	> 25	> 25	> 25	8.18 (≈ 23 µM)	24.1 (≈ 67.8 µM)
Nc1ccc(-c2cc(=O)c3cc(O)ccc3o2)cc1	2.72 (≈ 10.7 µM)	> 25	2.65 (≈ 10.5 µM)	2.03 (≈ 8.02 µM)	> 25
COc1ccc(-c2oc3ccccc3c(=O)c2C(=O)O)cc1	> 25	> 25	> 25	> 25	> 25
COC(=O)c1c(-c2ccc(Br)cc2)oc2ccccc2c1=O	> 25	> 25	> 25	> 25	> 25
COC(=O)c1c(-c2ccc(OC)cc2)oc2ccccc2c1=O	> 25	> 25	> 25	> 25	> 25
Nc1ccc(-c2cc(=O)c3c(O)cc(O)cc3o2)cc1	2.84 (≈ 10.5 µM)	> 25	3.44 (≈ 12.8 µM)	3.86 (≈ 14.3 µM)	> 25
COC(=O)c1c(-c2ccc(O)cc2)oc2ccc(OC)cc2c1=O	> 25	> 25	> 25	18.7 (≈ 57.3 µM)	> 25
COc1ccc(-c2oc3ccccc3c(=O)c2C(=O)O)cc1OC	> 25	> 25	> 25	> 25	> 25
COc1ccc2oc(-c3ccc([N+](=O)[O-])cc3)c(C(=O)O)c(=O)c2c1	> 25	15.8 (≈ 46.4 µM)	> 25	> 25	> 25
COC(=O)c1c(-c2ccc(OCc3ccccc3)cc2)oc2ccc(OC)cc2c1=O	22.1 (≈ 53 µM)	> 25	15.6 (≈ 37.4 µM)	20.9 (≈ 50.1 µM)	> 25
O=c1cc(-c2ccc([N+](=O)[O-])cc2)oc2cc(O)ccc12	21.8 (≈ 76.9 µM)	> 25	6.95 (≈ 24.5 µM)	> 25	> 25
COc1cc(-c2oc3ccccc3c(=O)c2C(=O)O)cc(OC)c1OC	> 25	> 25	> 25	> 25	> 25
O=c1cc(-c2ccc([N+](=O)[O-])cc2)oc2ccc(O)cc12	5.07 (≈ 17.9 µM)	> 25	> 25	21 (≈ 74.2 µM)	> 25
COC(=O)c1c(-c2ccc(OCc3ccccc3)cc2)oc2ccccc2c1=O	> 25	> 25	> 25	> 25	> 25
COc1cc(OC)cc(-c2oc3ccccc3c(=O)c2C(=O)O)c1	> 25	> 25	> 25	> 25	> 25
COC(=O)c1c(-c2ccc(NC(C)=O)cc2)oc2cc(OC)ccc2c1=O	9.76 (≈ 26.6 µM)	9.19 (≈ 25 µM)	8.21 (≈ 22.3 µM)	15.9 (≈ 43.4 µM)	9.26 (≈ 25.2 µM)
COC(=O)c1c(-c2ccc(OC)c(OC)c2)oc2ccccc2c1=O	> 25	> 25	> 25	> 25	> 25
COC(=O)c1c(-c2ccc(O)cc2)oc2ccccc2c1=O	> 25	> 25	> 25	> 25	> 25
COC(=O)c1c(-c2cc(OC)cc(OC)c2)oc2ccccc2c1=O	> 25	> 25	6.99 (≈ 20.5 µM)	> 25	> 25
O=c1cc(-c2ccc([N+](=O)[O-])cc2)oc2cc(O)cc(O)c12	4.19 (≈ 14 µM)	6.9 (≈ 23.1 µM)	3.34 (≈ 11.2 µM)	4.87 (≈ 16.3 µM)	> 25
